Laboratory results reported in publication PMC4549708, “Inhibition of neuraminidase by Ganoderma triterpenoids and implications for neuraminidase inhibitor design” (Scientific Reports, 2015).

Legend:
[1] = system: NA (H7N9); type: biochemical; conditions: 200 µM
[2] = system: MCF7 cells
[3] = molecular target: NA (H5N1) (Influenza A virus, UniProt K0C216); assay: biochemical; conditions: for Inhibition rate (%) NA (H5N1): 200 µM; for inhibition at 200 µM: read-out: Inhibition rate (%) NA (H5N1)
[4] = molecular target: NA (H1N1,09) (Influenza A virus, UniProt C3W5S3); assay: biochemical; conditions: for Inhibition rate (%) NA(H1N1,09) / inhibition at 200 µM: 200 μM of each compound, n = 3, means ± standard deviation; for IC50: in vitro NA inhibition assay (n = 3); for inhibition at 200 µM: read-out: Inhibition rate (%) NA(H1N1,09)
[5] = in vitro; conditions: human

Compound	Inhibition rate (%) NA(H7N9) [1]	CC50 [2]	IC50 [3]	Inhibition rate (%) NA (H5N1) [3]	Inhibition rate (%) NA(H1N1,09) [4]	IC50 [4]	inhibition at 200 µM [3]	CC50 [5]	inhibition at 200 µM [4]
CC(=O)O[C@H]1C[C@H]([C@H](C)CC/C=C(\C)C(=O)O)[C@@]2(C)CC=C3C(=CC[C@H]4C(C)(C)[C@@H](O)CC[C@]34C)[C@]12C [Compound 3, Ganoderic acid T-N]	25.6 ± 1.6%	24.4 ± 2.4 µM	2.7 ± 0.4 µM	91.1 ± 0.8%	72.0 ± 5.5%	42 ± 13.5 µM	–	–	–
C/C(=C/CC[C@@H](C)[C@H]1CC[C@@]2(C)C3=CC[C@H]4C(C)(C)C(=O)CC[C@]4(C)C3=CC[C@]12C)C(=O)O [Compound 4, Ganoderic acid Sz]	17.8 ± 4.0%	50.6 ± 0.1 µM	–	0.0%	60.1 ± 4.8%	101 ± 35.9 µM	–	–	–
C/C(=C/CC[C@@H](C)[C@H]1CC[C@@]2(C)C3=CC[C@H]4C(C)(C)C(=O)CC[C@]4(C)C3=CC[C@]12C)C(=O)O [Compound 5, Ganoderic acid S]	31.9 ± 2.3%	–	–	–	–	80.5 ± 24.9 µM	86.7 ± 0.5%	80.9 ± 6.8 µM	69.4 ± 2.3%
C/C(=C\CC[C@@H](C)[C@H]1CC[C@@]2(C)C3=CC[C@H]4C(C)(C)[C@@H](O)CC[C@]4(C)C3=CC[C@]12C)C(=O)O [Compound 6, Ganoderic acid Y]	17.8 ± 1.5%	–	–	–	–	–	78.2 ± 3.2%	18 ± 1.3 µM	63 ± 2.5%
C[C@H](CC(=O)C[C@@H](C)[C@H]1C[C@H](O)[C@@]2(C)C3=C(C(=O)C[C@]12C)[C@@]1(C)CCC(=O)C(C)(C)[C@@H]1C[C@@H]3O)C(=O)O [Compound 7, Ganoderic acid A]	6.3 ± 2.2%	–	–	–	–	–	31.4 ± 7.3%	> 200 µM	5 ± 5.4%
C/C(=C\C(=O)CC(C)C(=O)O)[C@H]1C[C@H](O)[C@@]2(C)C3=C(C(=O)C[C@]12C)[C@@]1(C)CCC(=O)C(C)(C)[C@@H]1C[C@@H]3O (stereo partly shown) [Compound 8, Ganoderenic acid A]	23.3 ± 3.1%	–	–	–	–	–	35.9 ± 7.7%	> 200 µM	35.3 ± 3.7%
C[C@H](CC(=O)C[C@@H](C)[C@H]1C[C@H](O)[C@@]2(C)C3=C(C(=O)C[C@]12C)[C@@]1(C)CC[C@H](O)C(C)(C)[C@@H]1C[C@@H]3O)C(=O)O [Compound 9, Ganoderic acid C2]	27.5 ± 2.3%	–	–	–	–	–	60.8 ± 4.3%	> 200 µM	32.4 ± 4.5%
CC(CC(=O)C[C@@H](C)[C@H]1CC(=O)[C@@]2(C)C3=C(C(=O)C[C@]12C)[C@@]1(C)CC[C@H](O)C(C)(C)[C@@H]1CC3=O)C(=O)O (stereo partly shown) [Compound 10, Ganoderic acid AM1]	14.1 ± 5.1%	–	–	–	–	–	75.2 ± 2.3%	> 200 µM	28.3 ± 6.2%
CC(=O)O[C@@H]1C(=O)C2=C([C@@H](O)C[C@H]3C(C)(C)[C@@H](O)CC[C@]23C)[C@]2(C)C(=O)C[C@H]([C@H](C)CC(=O)CC(C)C(=O)O)[C@@]12C (stereo partly shown) [Compound 11, Ganoderic acid K]	28.5 ± 1.9%	–	–	–	–	–	57.7 ± 10.9%	> 200 µM	28.8 ± 2%
C/C(=C\C(=O)CC(C)C(=O)O)[C@H]1CC(=O)[C@@]2(C)C3=C(C(=O)C[C@]12C)[C@@]1(C)CC[C@H](O)C(C)(C)[C@@H]1CC3=O (stereo partly shown) [Compound 12, Ganoderenic acid H]	38.6 ± 6.2%	–	–	–	–	–	77.7 ± 3.9%	> 200 µM	58 ± 3%
CC(=O)O[C@@H]1C(=O)C2=C(C(=O)C[C@H]3C(C)(C)[C@@H](O)CC[C@]23C)[C@]2(C)C(=O)C[C@H]([C@H](C)CC(=O)CC(C)C(=O)O)[C@@]12C (stereo partly shown) [Compound 13, Ganoderic acid H]	27.2 ± 3.2%	–	–	–	–	–	64.1 ± 4.5%	> 200 µM	35 ± 4.5%
CC(CC(=O)C[C@@H](C)[C@H]1CC(=O)[C@@]2(C)C3=C(C(=O)C[C@]12C)[C@@]1(C)CC[C@H](O)C(C)(C)[C@@H]1C[C@@H]3O)C(=O)O (stereo partly shown) [Compound 14, Ganoderic acid B]	5.5 ± 0.4%	–	–	–	–	–	3 ± 1%	> 200 µM	6.9 ± 6.8%
C/C(=C\C(=O)CC(C)C(=O)O)[C@H]1CC(=O)[C@@]2(C)C3=C(C(=O)C[C@]12C)[C@@]1(C)CCC(=O)C(C)(C)[C@@H]1CC3=O (stereo partly shown) [Compound 15, Ganoderenic acid F]	34.2 ± 4.7%	–	–	–	–	–	62.8 ± 4%	111 ± 17.9 µM	53.1 ± 1.6%
C/C(=C\C(=O)CC(C)C(=O)O)C1CC(O)C2(C)C3=C(C(=O)CC12C)C1(C)CCC(O)C(C)(C)C1CC3O (stereo not shown) [Compound 16, Ganoderenic acid C]	27.2 ± 0.5%	> 200 µM	–	30.6 ± 4.5%	27.9 ± 0.3%	–	–	–	–
CC(CC(=O)C[C@@H](C)[C@H]1CC(=O)[C@@]2(C)C3=C(C(=O)[C@@H](O)[C@]12C)[C@@]1(C)CC[C@H](O)C(C)(C)[C@@H]1CC3=O)C(=O)O (stereo partly shown) [Compound 18, Ganoderic acid C6]	25.7 ± 1.3%	–	–	–	–	–	15.6 ± 22.3%	> 200 µM	17.8 ± 1.2%
C[C@H](CC(=O)C[C@@H](C)[C@H]1CC(=O)[C@@]2(C)C3=C(C(=O)C[C@]12C)[C@@]1(C)CCC(=O)C(C)(C)[C@@H]1C[C@@H]3O)C(=O)O [Compound 19, Ganoderic acid C1]	26.2 ± 4.1%	–	–	–	–	–	43.3 ± 6.1%	> 200 µM	21.1 ± 4.1%
C/C(=C\CC[C@@H](C)[C@H]1CC[C@@]2(C)C3=C(CC[C@]12C)[C@@]1(C)CCC(=O)C(C)(C)[C@@H]1CC3=O)C(=O)O [Compound 20, Ganoderic acid DM]	29.4 ± 3.8%	–	–	–	–	–	55.2 ± 0.7%	> 200 µM	50.4 ± 1.5%
CC(CC(=O)C[C@@H](C)[C@H]1C[C@H](O)[C@@]2(C)C3=C(C(=O)C[C@]12C)[C@@]1(C)CCC(=O)C(C)(C)[C@@H]1CC3)C(=O)O (stereo partly shown) [Compound 21, Ganolucidic acid A]	16.7 ± 3.4%	–	–	–	–	–	49.8 ± 7.7%	> 200 µM	19.4 ± 2.7%
C/C(=C\[C@@H](O)C[C@@H](C)[C@H]1CC(=O)[C@@]2(C)C3=C(C(=O)C[C@]12C)[C@@]1(C)CC[C@H](O)C(C)(C)[C@@H]1CC3=O)C(=O)O [Compound 22, Ganoderic acid Zeta]	17.7 ± 2.4%	> 200 µM	–	0.0%	35.9 ± 5.3%	–	–	–	–
C/C(=C\[C@@H](O)C[C@@H](C)[C@H]1CC(=O)[C@@]2(C)C3=C(C(=O)C[C@]12C)[C@@]1(C)CCC(=O)C(C)(C)[C@@H]1C[C@@H]3O)C(=O)O [Compound 23, Ganoderic acid LM2]	12.7 ± 9.6%	–	–	–	–	–	67.1 ± 5.2%	> 200 µM	40.9 ± 6.2%
CC(=O)O[C@@H]1C(=O)C2=C(C(=O)C[C@H]3C(C)(C)C(=O)CC[C@]23C)[C@]2(C)C(=O)C[C@H]([C@H](C)CC(=O)CC(C)C(=O)O)[C@@]12C (stereo partly shown) [Compound 24, Ganoderic acid F]	14.8 ± 2.6%	–	–	–	–	–	48.6 ± 7.4%	> 200 µM	12.9 ± 11.4%
C/C(=C\CC[C@@H](C)[C@H]1CC[C@@]2(C)C3=CC[C@H]4C(C)(C)C(=O)CC[C@]4(C)C3=CC[C@]12C)CO [Compound 25, Ganoderol A]	15.9 ± 3.7%	–	–	–	–	–	77.1 ± 0.4%	20.4 ± 0.9 µM	48.3 ± 2.2%
C/C(=C\CC[C@@H](C)[C@H]1CC[C@@]2(C)C3=CC[C@H]4C(C)(C)[C@@H](O)CC[C@]4(C)C3=CC[C@]12C)CO [Compound 26, Ganoderol B]	21.8 ± 3.5%	–	–	–	–	–	71.6 ± 2.1%	> 200 µM	51 ± 2.6%
C[C@H](CCC=C(CO)CO)[C@H]1CC[C@@]2(C)C3=CC[C@H]4C(C)(C)C(=O)CC[C@]4(C)C3=CC[C@]12C [Compound 27, Ganoderiol F]	29.5 ± 4.3%	–	–	–	–	–	33.6 ± 12.1%	> 200 µM	52.9 ± 2%
C[C@H](CC[C@H](O)C(C)(C)O)[C@H]1CC[C@@]2(C)C3=CC[C@H]4C(C)(C)C(=O)CC[C@]4(C)C3=CC[C@]12C [Compound 28, Ganodermanondiol]	24.3 ± 1.7%	–	–	–	–	–	87.9 ± 1.8%	64.9 ± 10 µM	–
C[C@H](CC[C@H](O)[C@](C)(O)CO)[C@H]1CC[C@@]2(C)C3=CC[C@H]4C(C)(C)C(=O)CC[C@]4(C)C3=CC[C@]12C [Compound 29, Ganodermanontriol]	10.3 ± 3.5%	–	–	–	–	–	60.5 ± 6.8%	> 200 µM	35.3 ± 5.2%
C/C(C=O)=C\CC[C@@H](C)[C@H]1CC[C@@]2(C)C3=CC[C@H]4C(C)(C)[C@@H](O)CC[C@]4(C)C3=CC[C@]12C [Compound 30, Lucialdehyde A]	24.5 ± 1.6%	34.7 ± 5.5 µM	164 ± 18 µM	67.1 ± 5.7%	57.6 ± 1.7%	–	–	–	–
C/C(C=O)=C\CC[C@@H](C)[C@H]1CC[C@@]2(C)C3=C(CC[C@]12C)[C@@]1(C)CCC(=O)C(C)(C)[C@@H]1CC3=O [Compound 31, Lucialdehyde B]	30.4 ± 3.5%	–	–	–	–	–	86.7 ± 0.8%	7.1 ± 0.3 µM	51.4 ± 2.5%
Ganoderenic acid D [Compound 17]	35.9 ± 2.8%	> 200 µM	123 ± 22.5 µM	74.2 ± 2.2%	50.4 ± 3.0%	–	–	–	–
